Structures are written as SMILES. pIC50: −log10 of the molar value. Bounds are passed on as bounds.

Chain of p38 (Q16539 whole entry, the tested form may be a part): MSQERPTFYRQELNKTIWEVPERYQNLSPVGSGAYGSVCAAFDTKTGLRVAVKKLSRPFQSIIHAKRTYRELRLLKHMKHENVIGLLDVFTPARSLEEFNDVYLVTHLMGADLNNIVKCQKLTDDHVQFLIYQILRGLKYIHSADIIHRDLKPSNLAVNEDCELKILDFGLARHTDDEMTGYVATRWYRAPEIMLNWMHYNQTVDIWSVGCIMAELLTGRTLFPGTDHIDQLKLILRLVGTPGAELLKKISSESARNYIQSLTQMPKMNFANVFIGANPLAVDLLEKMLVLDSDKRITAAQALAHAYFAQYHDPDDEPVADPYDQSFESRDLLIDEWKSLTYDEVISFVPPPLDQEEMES

This experiment concerns the target p38 (Homo sapiens, UniProt Q16539). Nature of the experiment: Protein Kinase Assay (33P incorporation from γ-[33P]ATP into GST-ATF-2). The settings on record: 2 nM p38, preincubated 20 min at 30° C.; 10 uM cold ATP, 2 uM GST-ATF2, 70 min; read-out: ACT. (Activity), IC50 category in Protein Kinase Assay. The class given is biochemical. The method, boiled down: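 Compounds preincubated 20 min at 30 °C with 2 nM p38; reaction started with 2 uM GST-ATF-2 (aa 19-96) and 10 uM ATP plus γ-[33P]ATP, pH 7.5, 70 min at 30 °C, 2% DMSO. Phosphoric acid stop; 33P-labelled substrate captured on phosphocellulose and counted by scintillation.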
By pIC50 is commonly meant the IC50 on a negative log10 scale, so that one unit is a factor of ten. Consider `Cc1ccc(NC(=O)Nc2sc(C(C)(C)C)cc2C(=O)N2CCNC(=O)C2(C)C)cc1-c1ccc(OC2CCOCC2)nc1` [1-(5-tert-butyl-3-(2,2-dimethyl-3-oxopiperazine-1-carbonyl)thiophen-2-yl)-3-(4-methyl-3-(6-(tetrahydro-2H-pyran-4-yloxy)pyridin-3-yl)phenyl)urea], for which the negative-log IC50 (pIC50) was more than 7.00.
On to `Cc1ccc(-c2cc(NC(=O)Nc3sc(C(C)(C)C)cc3C(=O)N3CCNC(=O)C3(C)C)ccc2C)nn1` [1-(5-tert-butyl-3-(2,2-dimethyl-3-oxopiperazine-1-carbonyl)thiophen-2-yl)-3-(4-methyl-3-(6-methylpyridazin-3-yl)phenyl)urea], for which the pIC50 is more than 7.00.
The figure for `Cc1ccc(NC(=O)Nc2sc(C(C)(C)C)cc2C(=O)N2CCNC(=O)C2(C)C)cc1-c1ccc(N2CCOCC2)nc1` [1-(5-tert-butyl-3-(2,2-dimethyl-3-oxopiperazine-1-carbonyl)thiophen-2-yl)-3-(4-methyl-3-(6-morpholinopyridin-3-yl)phenyl)urea] is more than 7.00.
The figure for `Cc1ccc(NC(=O)Nc2sc(C(C)(C)C)cc2C(=O)N2CCNC(=O)C2(C)C)cc1-c1ccccn1` [1-(5-tert-butyl-3-(2,2-dimethyl-3-oxopiperazine-1-carbonyl)thiophen-2-yl)-3-(4-methyl-3-(pyridin-2-yl)phenyl)urea] is more than 7.00; for `Cc1ccc(NC(=O)Nc2sc(C(C)(C)C)cc2C(=O)N2CCNC(=O)C2(C)C)cc1C#Cc1ccccn1` [1-(5-tert-butyl-3-(2,2-dimethyl-3-oxopiperazine-1-carbonyl)thiophen-2-yl)-3-(4-methyl-3-(pyridin-2-ylethynyl)phenyl)urea] it is more than 7.00; for `Cc1ccc(NC(=O)Nc2sc(C(C)(C)C)cc2C(=O)N2CCNC(=O)C2(C)C)cc1-c1cccnc1` [1-(5-tert-butyl-3-(2,2-dimethyl-3-oxopiperazine-1-carbonyl)thiophen-2-yl)-3-(4-methyl-3-(pyridin-3-yl)phenyl)urea] it is more than 7.00.
The figure for `Cc1ccc(NC(=O)Nc2sc(C(C)(C)C)cc2C(=O)N2CCNC(=O)C2(C)C)cc1-c1ccncc1` [1-(5-tert-butyl-3-(2,2-dimethyl-3-oxopiperazine-1-carbonyl)thiophen-2-yl)-3-(4-methyl-3-(pyridin-4-yl)phenyl)urea] is more than 7.00; for `Cc1ccc(NC(=O)Nc2sc(C(C)(C)C)cc2C(=O)N2CCNC(=O)C2(C)C)cc1-c1ncccn1` [1-(5-tert-butyl-3-(2,2-dimethyl-3-oxopiperazine-1-carbonyl)thiophen-2-yl)-3-(4-methyl-3-(pyrimidin-2-yl)phenyl)urea] it is more than 7.00.
For the compound `COc1ccc(-c2ccc(C)c(NC(=O)Nc3sc(C(C)(C)C)cc3C(=O)N3CCNC(=O)C3(C)C)c2)cn1` [1-(5-tert-butyl-3-(2,2-dimethyl-3-oxopiperazine-1-carbonyl)thiophen-2-yl)-3-(5-(6-methoxypyridin-3-yl)-2-methylphenyl)urea], the pIC50 was more than 7.00.
Then `Cc1nnc(CN2CCN(C(=O)c3cc(C(C)(C)C)sc3NC(=O)Nc3ccc(C)c(-c4ccncc4)c3)C(C)(C)C2=O)o1` [1-(5-tert-butyl-3-(3,3-dimethyl-1-((5-methyl-1,3,4-oxadiazol-2-yl)methyl)-2-oxopiperazine-4-carbonyl)thiophen-2-yl)-3-(4-methyl-3-(pyridin-4-yl)phenyl)urea], with more than 7.00.
The figure for `Cc1ccc(NC(=O)Nc2sc(C(C)(C)C)cc2C(=O)N2CCN(C(=O)CN(C)C)CC2)cc1-c1cccnc1` [1-(5-tert-butyl-3-(4-(2-(dimethylamino)ethanoyl)piperazine-1-carbonyl)thiophen-2-yl)-3-(4-methyl-3-(pyridin-3-yl)phenyl)urea] is more than 6.00; for `CCc1ccc(-c2cc(NC(=O)Nc3sc(C(C)(C)C)cc3C(=O)N3CCN(CCN(C)C)C(=O)C3(C)C)ccc2C)cn1` [1-(5-tert-butyl-3-(4-(2-(dimethylamino)ethyl)-2,2-dimethyl-3-oxopiperazine-1-carbonyl)thiophen-2-yl)-3-(3-(6-ethylpyridin-3-yl)-4-methylphenyl)urea] it is more than 6.00; for `Cc1ccc(NC(=O)Nc2sc(C(C)(C)C)cc2C(=O)N2CCN(CCN(C)C)C(=O)C2(C)C)cc1-c1cccnc1` [1-(5-tert-butyl-3-(4-(2-(dimethylamino)ethyl)-2,2-dimethyl-3-oxopiperazine-1-carbonyl)thiophen-2-yl)-3-(4-methyl-3-(pyridin-3-yl)phenyl)urea] it is more than 7.00.
In the case of `COc1ccc(-c2cc(NC(=O)Nc3sc(C(C)(C)C)cc3C(=O)N3CCN(CCO)C(=O)C3(C)C)ccc2C)cn1` [1-(5-tert-butyl-3-(4-(2-hydroxyethyl)-2,2-dimethyl-3-oxopiperazine-1-carbonyl)thiophen-2-yl)-3-(3-(6-methoxypyridin-3-yl)-4-methylphenyl)urea], the pIC50 was more than 7.00.
The figure for `CC(=O)N1CCN(C(=O)c2cc(C(C)(C)C)sc2NC(=O)Nc2ccc(C)c(-c3cccnc3)c2)CC1` [1-(5-tert-butyl-3-(4-ethanoylpiperazine-1-carbonyl)thiophen-2-yl)-3-(4-methyl-3-(pyridin-3-yl)phenyl)urea] is more than 7.00; for `COc1ccc(-c2cc(NC(=O)Nc3sc(C(C)(C)C)cc3C(=O)N3CCC(=O)N(C)CC3)ccc2C)cn1` [1-(5-tert-butyl-3-(4-methyl-5-oxo-1,4-diazepane-1-carbonyl)thiophen-2-yl)-3-(3-(6-methoxypyridin-3-yl)-4-methylphenyl)urea] it is more than 7.00.
For `Cc1ccc(NC(=O)Nc2sc(C(C)(C)C)cc2C(=O)N2CCC(=O)N(C)CC2)cc1-c1ccc(N2CCOCC2)cn1` [1-(5-tert-butyl-3-(4-methyl-5-oxo-1,4-diazepane-1-carbonyl)thiophen-2-yl)-3-(4-methyl-3-(5-morpholinopyridin-2-yl)phenyl)urea], the pIC50 is more than 7.00.
Then `Cc1ccc(NC(=O)Nc2sc(C(C)(C)C)cc2C(=O)N2CCNC(=O)CC2)cc1-c1cnc(N2CCOCC2)nc1` [1-(5-tert-butyl-3-(5-oxo-1,4-diazepane-1-carbonyl)thiophen-2-yl)-3-(4-methyl-3-(2-morpholinopyrimidin-5-yl)phenyl)urea], with more than 7.00; and `Cc1ccc(NC(=O)Nc2sc(C(C)(C)C)cc2C(=O)N2CCNC(=O)CC2)cc1-c1cccnc1` [1-(5-tert-butyl-3-(5-oxo-1,4-diazepane-1-carbonyl)thiophen-2-yl)-3-(4-methyl-3-(pyridin-3-yl)phenyl)urea], with more than 7.00.
In the case of `Cc1ccc(NC(=O)Nc2sc(C(C)(C)C)cc2C(=O)N2CCNC(=O)C2(C)C)cc1-c1cccc[n+]1[O-]` [2-(5-(3-(5-tert-butyl-3-(2,2-dimethyl-3-oxopiperazine-1-carbonyl)thiophen-2-yl)ureido)-2-methylphenyl)pyridine 1-oxide], the pIC50 is more than 7.00.
The figure for `Cc1ccc(NC(=O)Nc2sc(C(C)(C)C)cc2C(=O)N2CCNC(=O)C2(C)C)cc1-c1cc[n+]([O-])cc1` [4-(5-(3-(5-tert-butyl-3-(2,2-dimethyl-3-oxopiperazine-1-carbonyl)thiophen-2-yl)ureido)-2-methylphenyl)pyridine 1-oxide] is more than 7.00; for `Cc1ccc(NC(=O)Nc2sc(C(C)(C)C)cc2C(=O)N2CCN(C)C(=O)C2(C)C)cc1-c1ccc(C[N+]2([O-])CCOCC2)[n+]([O-])c1` [4-((5-(5-(3-(5-tert-butyl-3-(2,2,4-trimethyl-3-oxopiperazine-1-carbonyl)thiophen-2-yl)ureido)-2-methylphenyl)-1-oxidopyridin-2-yl)methyl)morpholine 4-oxide] it is more than 6.00; for `Cc1ccc(NC(=O)Nc2sc(C(C)(C)C)cc2C(=O)N2CCN(C)C(=O)C2(C)C)cc1-c1ccc(C[N+]2([O-])CCOCC2)nc1` [4-((5-(5-(3-(5-tert-butyl-3-(2,2,4-trimethyl-3-oxopiperazine-1-carbonyl)thiophen-2-yl)ureido)-2-methylphenyl)pyridin-2-yl)methyl)morpholine 4-oxide] it is more than 7.00.
Then `CCNC(=O)c1ccc(-c2cc(NC(=O)Nc3cn(C(C)(C)C)nc3C(=O)N3CCN(C)C(=O)C3(C)C)ccc2C)cn1` [5-(5-(3-(1-tert-butyl-3-(2,2,4-trimethyl-3-oxopiperazine-1-carbonyl)-1H-pyrazol-4-yl)ureido)-2-methylphenyl)-N-ethylpyridine-2-carboxamide], with more than 7.00; and `CCNC(=O)c1ccc(-c2cc(NC(=O)Nc3cn(C(C)(C)C)nc3C(=O)N3CCNC(=O)C3(C)C)ccc2C)cn1` [5-(5-(3-(1-tert-butyl-3-(2,2-dimethyl-3-oxopiperazine-1-carbonyl)-1H-pyrazol-4-yl)ureido)-2-methylphenyl)-N-ethylpyridine-2-carboxamide], with more than 7.00; and `CCNC(=O)c1ccc(-c2cc(NC(=O)Nc3sc(C(C)(C)C)nc3C(=O)N3CCN(C)C(=O)C3(C)C)ccc2C)cn1` [5-(5-(3-(2-tert-butyl-4-(2,2,4-trimethyl-3-oxopiperazine-1-carbonyl)thiazol-5-yl)ureido)-2-methylphenyl)-N-ethylpyridine-2-carboxamide], with more than 7.00.
For the compound `CCNC(=O)c1ccc(-c2cc(NC(=O)Nc3cc(C(C)(C)C)oc3C(=O)N3CCN(C)C(=O)C3(C)C)ccc2C)cn1` [5-(5-(3-(5-tert-butyl-2-(2,2,4-trimethyl-3-oxopiperazine-1-carbonyl)furan-3-yl)ureido)-2-methylphenyl)-N-ethylpyridine-2-carboxamide], the pIC50 was more than 7.00.
The figure for `CCNC(=O)c1ccc(-c2cc(NC(=O)Nc3cc(C(C)(C)C)sc3C(=O)N3CCN(C)C(=O)C3(C)C)ccc2C)cn1` [5-(5-(3-(5-tert-butyl-2-(2,2,4-trimethyl-3-oxopiperazine-1-carbonyl)thiophen-3-yl)ureido)-2-methylphenyl)-N-ethylpyridine-2-carboxamide] is more than 7.00.

These data come from patent US20100041642A1, “UREA INHIBITORS OF MAP KINASES” (LOCUS PHARMACEUTICALS, INC., priority 2008, published 2010).
